In US20250243196A1, “CITRON KINASE INHIBITORS” (The Cleveland Clinic Foundation, priority 2021, published 2025):

Tests used:
Experiment in all cases: KinaseProfiler panel
Format in all cases: biochemical
Conditions in all cases: activity remaining
[1] = biological target: PI3KC2g(h) (Homo sapiens (Human), UniProt O75747)
[2] = biological target: IR(h), activated (Homo sapiens (Human), UniProt P06213); set-up: dose or concentration left out as unconfirmed
[3] = biological target: Plk4(h) (Homo sapiens (Human), UniProt O00444); set-up: dose or concentration left out as unconfirmed
[4] = biological target: Mer(h) (Homo sapiens (Human), UniProt Q12866); set-up: dose or concentration left out as unconfirmed
Chain of Mer(h) (Q12866 21-999): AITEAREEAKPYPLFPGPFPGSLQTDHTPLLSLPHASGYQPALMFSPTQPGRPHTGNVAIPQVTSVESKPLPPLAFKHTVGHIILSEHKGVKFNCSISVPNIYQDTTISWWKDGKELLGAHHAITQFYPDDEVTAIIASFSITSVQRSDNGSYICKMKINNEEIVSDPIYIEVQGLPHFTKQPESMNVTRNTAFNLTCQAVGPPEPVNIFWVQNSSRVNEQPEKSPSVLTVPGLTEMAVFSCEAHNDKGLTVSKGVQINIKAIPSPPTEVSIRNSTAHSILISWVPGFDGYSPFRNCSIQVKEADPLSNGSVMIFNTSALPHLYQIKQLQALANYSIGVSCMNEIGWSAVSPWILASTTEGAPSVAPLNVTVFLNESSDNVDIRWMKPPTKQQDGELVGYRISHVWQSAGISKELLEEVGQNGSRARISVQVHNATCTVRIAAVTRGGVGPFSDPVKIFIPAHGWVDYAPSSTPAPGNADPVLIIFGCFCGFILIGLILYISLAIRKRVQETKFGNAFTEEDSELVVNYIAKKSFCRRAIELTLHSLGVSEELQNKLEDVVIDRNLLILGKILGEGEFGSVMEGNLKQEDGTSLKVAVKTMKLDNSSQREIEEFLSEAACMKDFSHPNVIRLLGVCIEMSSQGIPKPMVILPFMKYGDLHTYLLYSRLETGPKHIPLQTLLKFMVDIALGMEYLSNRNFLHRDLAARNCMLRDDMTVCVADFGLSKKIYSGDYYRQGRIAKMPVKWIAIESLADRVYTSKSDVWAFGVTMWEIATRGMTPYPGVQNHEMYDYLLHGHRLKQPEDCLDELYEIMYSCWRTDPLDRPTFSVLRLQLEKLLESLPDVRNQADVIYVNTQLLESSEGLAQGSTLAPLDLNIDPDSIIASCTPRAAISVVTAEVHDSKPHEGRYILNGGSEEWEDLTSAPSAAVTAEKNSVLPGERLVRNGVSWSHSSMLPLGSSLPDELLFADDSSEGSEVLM

[5] = biological target: ACTR2(h) (Homo sapiens (Human), UniProt P27037); set-up: dose or concentration left out as unconfirmed
[6] = biological target: PTK5(h) (Homo sapiens (Human), UniProt P42685); set-up: dose or concentration left out as unconfirmed
[7] = biological target: Fgr(h) (Homo sapiens (Human), UniProt P09769); set-up: dose or concentration left out as unconfirmed
[8] = biological target: Flt3(h) (Homo sapiens (Human), UniProt P36888); set-up: dose or concentration left out as unconfirmed
[9] = biological target: MRCKβ(h) (Homo sapiens (Human), UniProt Q9Y5S2); set-up: dose or concentration left out as unconfirmed
[10] = biological target: GCN2(h) (Homo sapiens (Human), UniProt Q9P2K8); set-up: dose or concentration left out as unconfirmed
Chain of GCN2(h) (Q9P2K8 whole entry): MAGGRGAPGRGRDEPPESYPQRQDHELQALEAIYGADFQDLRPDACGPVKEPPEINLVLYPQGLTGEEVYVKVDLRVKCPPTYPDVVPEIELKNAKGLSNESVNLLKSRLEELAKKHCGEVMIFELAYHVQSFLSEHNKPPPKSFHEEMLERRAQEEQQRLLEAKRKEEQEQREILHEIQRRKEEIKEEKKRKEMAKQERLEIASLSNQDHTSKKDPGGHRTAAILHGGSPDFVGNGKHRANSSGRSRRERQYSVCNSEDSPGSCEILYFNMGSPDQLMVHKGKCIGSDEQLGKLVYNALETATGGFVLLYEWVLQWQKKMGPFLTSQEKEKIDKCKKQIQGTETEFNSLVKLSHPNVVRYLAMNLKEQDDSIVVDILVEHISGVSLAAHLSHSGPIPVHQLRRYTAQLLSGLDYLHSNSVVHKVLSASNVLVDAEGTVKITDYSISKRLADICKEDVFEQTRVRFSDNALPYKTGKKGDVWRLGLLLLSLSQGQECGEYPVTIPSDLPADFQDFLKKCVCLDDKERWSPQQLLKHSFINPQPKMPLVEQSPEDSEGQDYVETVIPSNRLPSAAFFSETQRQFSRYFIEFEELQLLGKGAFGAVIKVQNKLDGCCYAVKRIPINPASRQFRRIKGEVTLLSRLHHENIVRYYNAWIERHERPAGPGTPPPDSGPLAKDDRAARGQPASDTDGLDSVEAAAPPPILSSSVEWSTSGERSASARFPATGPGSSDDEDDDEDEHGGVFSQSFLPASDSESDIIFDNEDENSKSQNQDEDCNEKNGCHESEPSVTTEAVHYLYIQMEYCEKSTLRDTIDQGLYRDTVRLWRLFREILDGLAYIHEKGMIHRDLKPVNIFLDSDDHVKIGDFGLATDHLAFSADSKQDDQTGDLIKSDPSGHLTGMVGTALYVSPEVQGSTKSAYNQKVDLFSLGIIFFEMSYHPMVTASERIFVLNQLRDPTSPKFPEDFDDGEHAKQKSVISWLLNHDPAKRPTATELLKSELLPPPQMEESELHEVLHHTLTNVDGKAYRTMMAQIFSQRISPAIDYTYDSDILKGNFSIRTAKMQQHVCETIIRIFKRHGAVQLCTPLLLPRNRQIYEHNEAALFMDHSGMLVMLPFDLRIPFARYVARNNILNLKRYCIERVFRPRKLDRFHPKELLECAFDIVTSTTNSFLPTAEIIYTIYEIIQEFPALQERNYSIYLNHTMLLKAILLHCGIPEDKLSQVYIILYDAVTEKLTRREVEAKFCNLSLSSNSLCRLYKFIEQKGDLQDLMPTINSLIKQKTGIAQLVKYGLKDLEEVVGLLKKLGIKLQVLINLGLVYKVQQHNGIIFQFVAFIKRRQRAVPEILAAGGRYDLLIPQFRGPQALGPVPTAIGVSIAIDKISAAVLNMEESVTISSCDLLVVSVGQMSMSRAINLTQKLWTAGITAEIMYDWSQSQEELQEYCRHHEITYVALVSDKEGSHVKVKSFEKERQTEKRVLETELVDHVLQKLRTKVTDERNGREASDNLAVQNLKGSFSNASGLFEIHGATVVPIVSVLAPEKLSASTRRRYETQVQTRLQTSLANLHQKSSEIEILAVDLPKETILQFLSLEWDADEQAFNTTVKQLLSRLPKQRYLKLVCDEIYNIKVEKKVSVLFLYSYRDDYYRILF

[11] = biological target: ChaK1(h) (Homo sapiens (Human), UniProt Q96QT4); set-up: dose or concentration left out as unconfirmed
[12] = biological target: PDK1(h) (Homo sapiens (Human), UniProt O15530); set-up: dose or concentration left out as unconfirmed
[13] = biological target: Ret(h) (Homo sapiens (Human), UniProt P07949); set-up: dose or concentration left out as unconfirmed
[14] = biological target: EphA4(h) (Homo sapiens (Human), UniProt P54764); set-up: dose or concentration left out as unconfirmed
[15] = biological target: CDK14/cyclinY(h) (Homo sapiens (Human), UniProt O94921); set-up: dose or concentration left out as unconfirmed
[16] = biological target: PI3KC2a(h) (Homo sapiens (Human), UniProt O00443); set-up: dose or concentration left out as unconfirmed
[17] = biological target: PKBγ(h) (Homo sapiens (Human), UniProt Q9Y243); set-up: dose or concentration left out as unconfirmed
[18] = biological target: Fyn(h) (Homo sapiens (Human), UniProt P06241); set-up: dose or concentration left out as unconfirmed
[19] = biological target: MKK6(h) (Homo sapiens (Human), UniProt P52564); set-up: dose or concentration left out as unconfirmed
[20] = biological target: Bmx(h) (Homo sapiens (Human), UniProt P51813); set-up: dose or concentration left out as unconfirmed
[21] = biological target: Cdc7/cyclinB1(h) (Homo sapiens, UniProt O00311); set-up: dose or concentration left out as unconfirmed
[22] = biological target: VRK2(h) (Homo sapiens (Human), UniProt Q86Y07); set-up: dose or concentration left out as unconfirmed
[23] = biological target: SAPK2a(h) (Homo sapiens (Human), UniProt Q16539); set-up: dose or concentration left out as unconfirmed
[24] = biological target: JNK1α1(h) (Homo sapiens (Human), UniProt P45983); set-up: dose or concentration left out as unconfirmed
[25] = biological target: IR(h) (Homo sapiens (Human), UniProt P06213); set-up: dose or concentration left out as unconfirmed
[26] = biological target: GRK1(h) (Homo sapiens (Human), UniProt Q15835); set-up: dose or concentration left out as unconfirmed
Chain of GRK1(h) (Q15835 whole entry): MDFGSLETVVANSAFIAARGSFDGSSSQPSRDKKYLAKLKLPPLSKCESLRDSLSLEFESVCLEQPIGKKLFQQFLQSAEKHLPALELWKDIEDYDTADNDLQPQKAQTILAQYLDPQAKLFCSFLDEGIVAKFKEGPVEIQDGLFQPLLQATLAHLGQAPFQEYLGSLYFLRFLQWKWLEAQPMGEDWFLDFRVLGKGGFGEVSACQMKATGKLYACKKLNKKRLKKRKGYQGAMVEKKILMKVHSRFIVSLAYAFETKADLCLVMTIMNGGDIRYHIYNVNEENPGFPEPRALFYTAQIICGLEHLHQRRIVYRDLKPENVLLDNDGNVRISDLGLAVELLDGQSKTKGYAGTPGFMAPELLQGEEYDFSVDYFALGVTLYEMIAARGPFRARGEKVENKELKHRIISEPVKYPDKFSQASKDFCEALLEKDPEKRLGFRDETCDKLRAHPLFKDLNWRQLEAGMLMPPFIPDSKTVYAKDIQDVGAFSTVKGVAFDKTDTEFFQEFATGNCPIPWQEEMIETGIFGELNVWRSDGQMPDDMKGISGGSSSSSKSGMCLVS

[27] = biological target: SRPK2(h) (Homo sapiens (Human), UniProt P78362); set-up: dose or concentration left out as unconfirmed
Chain of SRPK2(h) (P78362 whole entry): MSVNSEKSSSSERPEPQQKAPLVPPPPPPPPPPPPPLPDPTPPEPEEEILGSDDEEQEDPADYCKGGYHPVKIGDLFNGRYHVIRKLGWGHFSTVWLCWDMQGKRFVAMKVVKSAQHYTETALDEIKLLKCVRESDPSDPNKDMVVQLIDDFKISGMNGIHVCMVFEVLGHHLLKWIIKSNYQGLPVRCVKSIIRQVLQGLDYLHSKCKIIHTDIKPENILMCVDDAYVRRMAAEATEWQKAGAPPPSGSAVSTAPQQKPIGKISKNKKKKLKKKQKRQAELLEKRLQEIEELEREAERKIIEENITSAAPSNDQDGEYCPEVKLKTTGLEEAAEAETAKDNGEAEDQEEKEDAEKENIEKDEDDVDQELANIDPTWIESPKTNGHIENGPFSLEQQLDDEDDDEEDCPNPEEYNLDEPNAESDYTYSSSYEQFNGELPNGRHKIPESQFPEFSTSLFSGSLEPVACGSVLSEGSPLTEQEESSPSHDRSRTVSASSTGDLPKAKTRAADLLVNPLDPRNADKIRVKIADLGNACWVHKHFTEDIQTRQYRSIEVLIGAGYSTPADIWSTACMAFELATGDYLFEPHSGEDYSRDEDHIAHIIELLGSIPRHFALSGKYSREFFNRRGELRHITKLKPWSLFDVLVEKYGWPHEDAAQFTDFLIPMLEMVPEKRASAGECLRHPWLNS

[28] = biological target: PRK2(h) (Homo sapiens (Human), UniProt Q16513); set-up: dose or concentration left out as unconfirmed
Chain of PRK2(h) (Q16513 whole entry): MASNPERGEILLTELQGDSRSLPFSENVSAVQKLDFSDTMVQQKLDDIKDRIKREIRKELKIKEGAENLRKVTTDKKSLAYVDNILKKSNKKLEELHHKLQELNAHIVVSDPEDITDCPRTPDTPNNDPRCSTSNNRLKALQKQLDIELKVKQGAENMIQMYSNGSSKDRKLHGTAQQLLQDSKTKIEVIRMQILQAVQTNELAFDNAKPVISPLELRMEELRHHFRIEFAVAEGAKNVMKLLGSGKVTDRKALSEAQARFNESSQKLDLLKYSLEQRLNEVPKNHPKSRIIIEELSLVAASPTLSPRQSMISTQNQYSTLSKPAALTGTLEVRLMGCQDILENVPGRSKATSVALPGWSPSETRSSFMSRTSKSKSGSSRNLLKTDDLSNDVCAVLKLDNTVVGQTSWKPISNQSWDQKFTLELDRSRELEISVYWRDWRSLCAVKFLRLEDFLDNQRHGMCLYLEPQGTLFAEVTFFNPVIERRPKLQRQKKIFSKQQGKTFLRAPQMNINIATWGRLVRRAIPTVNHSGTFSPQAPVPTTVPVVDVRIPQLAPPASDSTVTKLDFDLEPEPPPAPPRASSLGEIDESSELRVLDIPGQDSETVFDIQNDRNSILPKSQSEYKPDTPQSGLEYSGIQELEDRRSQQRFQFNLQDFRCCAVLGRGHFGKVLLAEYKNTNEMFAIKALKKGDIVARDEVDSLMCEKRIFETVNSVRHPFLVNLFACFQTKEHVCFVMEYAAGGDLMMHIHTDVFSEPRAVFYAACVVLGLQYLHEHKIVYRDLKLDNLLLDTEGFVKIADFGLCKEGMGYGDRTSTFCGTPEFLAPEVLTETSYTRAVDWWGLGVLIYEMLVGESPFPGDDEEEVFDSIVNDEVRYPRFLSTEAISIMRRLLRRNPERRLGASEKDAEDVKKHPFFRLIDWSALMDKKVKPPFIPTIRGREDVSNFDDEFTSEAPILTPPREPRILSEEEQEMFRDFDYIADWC

[29] = biological target: TYK2(h) (Homo sapiens (Human), UniProt P29597); set-up: dose or concentration left out as unconfirmed
[30] = biological target: TrkA(h) (Homo sapiens (Human), UniProt P04629); set-up: dose or concentration left out as unconfirmed
[31] = biological target: SGK3(h) (Homo sapiens (Human), UniProt Q96BR1); set-up: dose or concentration left out as unconfirmed
[32] = biological target: TLK1(h) (Homo sapiens (Human), UniProt Q9UKI8)
[33] = biological target: NDR1(h) (Homo sapiens (Human), UniProt Q15208); set-up: dose or concentration left out as unconfirmed

Cc1cc2c(-c3ccc(NC(=O)[C@H](N)CC(C)(C)C)cc3C)ccnc2[nH]1 [Compound F-90, (2R)-2-Amino-4,4-dimethyl-N-[3-methyl-4-(2-methyl-1H-pyrrolo[2,3-b]pyridin-4-yl)phenyl]pentanamide]
% Activity [1]: 103% | % Activity [2]: 92% | % Activity [3]: 92% | % Activity [4]: 105% | % Activity [5]: 96% | % Activity [6]: 90% | % Activity [7]: 97% | % Activity [8]: 84% | % Activity [9]: 100% | % Activity [10]: 101% | % Activity [11]: 106% | % Activity [12]: 105% | % Activity [13]: 97% | % Activity [14]: 92% | % Activity [15]: 91% | % Activity [16]: 102% | % Activity [17]: 101% | % Activity [18]: 100% | % Activity [19]: 101% | % Activity [20]: 97% | % Activity [21]: 75% | % Activity [22]: 100% | % Activity [23]: 94% | % Activity [24]: 110% | % Activity [25]: 94% | % Activity [26]: 86% | % Activity [27]: 93% | % Activity [28]: 92% | % Activity [29]: 103% | % Activity [30]: 105% | % Activity [31]: 102% | % Activity [32]: 82% | % Activity [33]: 100%
